A word on the AC50: it is the midpoint of the concentration-response curve, whichever way the signal moves. In general, IC50 refers to the concentration at which inhibition is half-maximal. What is called EC50 is the midpoint of the concentration-response curve. Usually CC50 stands for the concentration that lowers cell viability or growth by half.

We go through 33 compounds from ChEMBL document CHEMBL1201862, “PubChem BioAssay data set” (2004).

The structures appear in SMILES notation. Active and inactive are the calls of the source. A value given as a limit tells only on which side of the number the result lay.

Assay [1] has as its target FAD-linked sulfhydryl oxidase ALR (Homo sapiens, UniProt P55789). The assay can be described thus: inhibitors of human ALR sulfhydryl oxidase, dose response, biochemical, H2O2 detection, luminescence, cherry-pick (AID 493248).
In assay [2] the target is T1, Calpain-2 catalytic subunit (Sus scrofa, UniProt P43367).
T1 sequence (P43367 whole entry): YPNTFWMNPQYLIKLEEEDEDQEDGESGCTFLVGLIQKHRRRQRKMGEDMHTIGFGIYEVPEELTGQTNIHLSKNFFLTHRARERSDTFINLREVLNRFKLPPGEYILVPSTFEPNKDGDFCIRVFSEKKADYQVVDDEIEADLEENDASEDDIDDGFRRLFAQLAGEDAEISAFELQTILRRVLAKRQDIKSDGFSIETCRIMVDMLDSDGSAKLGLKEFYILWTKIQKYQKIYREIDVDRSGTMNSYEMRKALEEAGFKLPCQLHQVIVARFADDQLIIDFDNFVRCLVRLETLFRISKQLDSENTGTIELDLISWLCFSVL
The assay can be described thus: pig calpain II inhibitor potency, dose response, biochemical, fluorogenic peptide substrate (AID 1420). The class given is functional.

A short description of assay [3]: NIH-3T3 fibroblast cytotoxicity, dose response, cytotoxicity control, cell-based, fluorescence, Alamar Blue, secondary assay (AID 2327).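 Further: NIH-3T3 mouse fibroblasts cultured with fluconazole at 8 µg/mL.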 The format is functional. On the technique in general: The colour change of resazurin is a common sign of viable cells or microbes.
Assay [4] in a line: C. albicans growth with fluconazole, confirmation, fluorescence, retest (AID 2467). The class given is functional, cell-based.
Assay [5] can be described thus: growth suppression of PTEN-null colon cells, dose response, cell-based, HCT116 PTEN knockout (AID 1047).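 Further: HCT116 colon tumor cells with PTEN knocked out; cells exposed to compound for 60 hours before readout; potency for loss of cell viability measured by luminescence.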 The format is functional.
Assay [6] is described as follows: growth suppression of beta-catenin-knockout colon cells, dose response, cell-based, HCT116, human colon tumor (AID 1045).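 Further: HCT116 colon tumor cells with beta catenin knocked out; cells exposed to compound for 60 hours.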 The format is functional.
For assay [7], the target named is T2, Carboxy-terminal domain RNA polymerase II polypeptide A small phosphatase 1 (Homo sapiens, UniProt Q9GZU7).
T2 sequence (Q9GZU7 whole entry): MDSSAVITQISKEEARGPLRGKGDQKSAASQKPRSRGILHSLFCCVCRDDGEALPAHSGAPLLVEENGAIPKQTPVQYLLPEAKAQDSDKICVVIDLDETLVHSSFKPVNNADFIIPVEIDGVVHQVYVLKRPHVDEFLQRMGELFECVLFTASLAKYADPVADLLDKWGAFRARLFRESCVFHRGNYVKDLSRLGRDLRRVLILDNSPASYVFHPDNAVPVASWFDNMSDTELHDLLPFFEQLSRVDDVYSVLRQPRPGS
The assay can be described thus: inhibitors of CTDSP1, concentration-response testing, biochemical assay, absorbance-based, actives from ultra-high-throughput screening (AID 540297). The format is functional.

Assay [8] is described as follows: inhibitors of intracellular T. cruzi replication, confirmation, NIH3T3 host cells, beta-gal luminescence (AID 2044).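 Further: intracellular parasites grown in NIH/3T3 mouse fibroblasts as host cells; luminescent beta-galactosidase reporter signal from transgenic T. cruzi replicating inside host cells; inhibitors lower the luminescence signal.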 The class given is functional, cell-based.
Assay [9] is described as follows: cytotoxicity toward NIH3T3 fibroblasts, dose response, counter-screen, cell-based, ATP luminescence, mouse fibroblasts (AID 2010).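 Further: cells exposed to compound for about 90 hours before reading.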 The format is functional. In general terms: A counterscreen serves to expose hits that act by an unwanted route or on another target.
Assay [10] has as its target Large T antigen (Simian virus 40, UniProt P03070). The format is functional, Betapolyomavirus macacae.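 Further: Confirmatory-stage PubChem screen for compounds that inhibit SV40 T antigen.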
Assay [11] in a line: HEp-2 cell cytotoxicity, dose response, cytotoxicity control for RSV inhibitor project, HTS (AID 2410). The class given is functional. The following applies: human respiratory syncytial virus.
Assay [12] deals with T3, Protein skinhead-1 (Caenorhabditis elegans, UniProt P34707).
T3 sequence (P34707 whole entry): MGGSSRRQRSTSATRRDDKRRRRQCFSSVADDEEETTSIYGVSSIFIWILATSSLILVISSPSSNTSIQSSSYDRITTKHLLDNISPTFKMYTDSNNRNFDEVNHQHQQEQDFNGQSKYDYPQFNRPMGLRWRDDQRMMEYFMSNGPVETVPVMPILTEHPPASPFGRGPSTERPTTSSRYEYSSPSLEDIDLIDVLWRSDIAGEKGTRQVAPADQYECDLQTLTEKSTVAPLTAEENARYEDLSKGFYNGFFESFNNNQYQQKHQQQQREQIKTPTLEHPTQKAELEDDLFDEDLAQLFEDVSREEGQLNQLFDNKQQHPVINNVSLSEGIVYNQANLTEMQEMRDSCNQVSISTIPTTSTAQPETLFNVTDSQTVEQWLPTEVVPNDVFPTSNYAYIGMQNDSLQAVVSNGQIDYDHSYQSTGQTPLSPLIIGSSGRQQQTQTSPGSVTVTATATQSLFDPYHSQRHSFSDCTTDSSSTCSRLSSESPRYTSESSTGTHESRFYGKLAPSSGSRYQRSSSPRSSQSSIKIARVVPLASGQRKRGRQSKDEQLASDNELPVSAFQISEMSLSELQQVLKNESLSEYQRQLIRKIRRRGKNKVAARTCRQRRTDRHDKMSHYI
The class given is functional.

Assay [13] is described as follows: Luminescence Cell-Based Dose Response HTS to Identify Activators of Luciferase Translation or Activity in H4 […] Cells. [Related pubchem assays: 1829 (Project Summary), 1814 (Primary HTS)]. The format is functional.
A short description of assay [14]: Luminescence Cell-Based Dose Confirmation HTS to Identify Activators of 5'UTR Stem-Loop Driven Alpha-Synuclein mRNA Translation in H4 Neuroglioblastoma Cells. [Related pubchem assays: 1829 (Project Summary), 1814 (Primary HTS)]. The class given is functional.
The test system of assay [15] is H4. Briefly: Luminescence Cell-Based Dose Response HTS to Identify Activators of 5'UTR Stem-Loop Driven Prion Protein mRNA Translation in H4 Neuroglioblastoma Cells. [Related pubchem assays: 1829 (Project Summary), 1814 (Primary HTS)]. The following applies: Homo sapiens. The format is functional.
The target of assay [16] is Paired box protein Pax-8 (Homo sapiens, UniProt Q06710). Briefly: inhibitors of PAX8-driven TPO luciferase reporter, dose response, RMG-I cells, cherry-pick (AID 687027).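 Further: luciferase reporter driven by Pax8 target thyroperoxidase promoter measured by SteadyGlo luminescence.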 The class given is functional, cell-based.
Assay [17] deals with T4, Streptokinase A (Streptococcus pyogenes serotype M1, UniProt P10520).
T4 sequence (P10520 whole entry): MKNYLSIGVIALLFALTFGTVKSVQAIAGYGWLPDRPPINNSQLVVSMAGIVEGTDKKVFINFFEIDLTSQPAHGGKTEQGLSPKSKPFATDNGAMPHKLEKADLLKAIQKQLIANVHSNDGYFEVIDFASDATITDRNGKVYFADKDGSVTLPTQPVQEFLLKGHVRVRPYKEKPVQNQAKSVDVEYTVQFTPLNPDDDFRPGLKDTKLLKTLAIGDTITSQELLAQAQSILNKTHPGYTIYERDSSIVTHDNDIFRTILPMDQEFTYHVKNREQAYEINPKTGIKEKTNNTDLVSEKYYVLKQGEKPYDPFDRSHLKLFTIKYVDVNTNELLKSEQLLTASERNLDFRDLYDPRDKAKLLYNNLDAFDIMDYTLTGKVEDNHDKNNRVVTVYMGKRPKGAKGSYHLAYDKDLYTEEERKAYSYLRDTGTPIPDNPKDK
Briefly: S. pyogenes streptokinase expression inhibitors, potency, dose response, plasminogen activation absorbance, OD405 (AID 1914).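 Further: secreted streptokinase activity via plasminogen activation per viability signal from cell pellet.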 The class given is functional, Streptococcus pyogenes M1 GAS.

Assay [18] relates to Streptococcus sp. 'group A'. The assay can be described thus: growth inhibition of control SK(-) GAS strain, dose response, counter-screen for streptokinase expression inhibitor project, luminescence, kanamycin, BacTiterGlo, confirmation (AID 1900). The format is functional, organism-based.
Assay [19] deals with Streptococcus. The assay can be described thus: Group A Streptococcus viability loss, dose response, counter-screen for streptokinase expression inhibitor project, luminescence, BacTiterGlo (AID 1915).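 Further: potency for reduction of bacterial viability or growth.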 The class given is functional, organism-based.

FAD-linked sulfhydryl oxidase ALR, sequence (P55789 whole entry): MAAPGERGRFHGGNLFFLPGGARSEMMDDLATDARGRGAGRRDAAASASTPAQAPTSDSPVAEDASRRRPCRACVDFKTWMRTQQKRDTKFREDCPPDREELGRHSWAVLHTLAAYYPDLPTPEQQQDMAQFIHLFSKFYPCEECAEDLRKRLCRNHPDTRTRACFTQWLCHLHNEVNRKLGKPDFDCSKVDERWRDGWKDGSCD
Large T antigen, sequence (P03070 whole entry): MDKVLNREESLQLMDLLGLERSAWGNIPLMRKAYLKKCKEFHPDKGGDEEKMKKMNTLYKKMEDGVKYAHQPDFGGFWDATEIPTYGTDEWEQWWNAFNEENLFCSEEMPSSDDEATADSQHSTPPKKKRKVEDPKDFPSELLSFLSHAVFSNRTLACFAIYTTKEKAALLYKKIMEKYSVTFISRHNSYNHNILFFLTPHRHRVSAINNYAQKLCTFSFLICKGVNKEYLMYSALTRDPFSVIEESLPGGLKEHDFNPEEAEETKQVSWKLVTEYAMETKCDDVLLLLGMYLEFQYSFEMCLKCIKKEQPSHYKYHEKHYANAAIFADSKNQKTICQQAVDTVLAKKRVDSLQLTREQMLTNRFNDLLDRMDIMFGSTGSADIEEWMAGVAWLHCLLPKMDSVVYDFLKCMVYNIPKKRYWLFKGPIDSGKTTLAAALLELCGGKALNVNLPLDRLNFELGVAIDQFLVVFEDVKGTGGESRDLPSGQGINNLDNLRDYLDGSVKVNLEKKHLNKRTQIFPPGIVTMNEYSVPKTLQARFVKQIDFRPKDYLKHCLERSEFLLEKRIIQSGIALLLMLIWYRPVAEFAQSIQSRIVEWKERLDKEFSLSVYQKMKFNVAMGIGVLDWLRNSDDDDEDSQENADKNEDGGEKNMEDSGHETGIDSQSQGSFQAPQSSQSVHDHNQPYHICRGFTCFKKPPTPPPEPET
Paired box protein Pax-8, sequence (Q06710 whole entry): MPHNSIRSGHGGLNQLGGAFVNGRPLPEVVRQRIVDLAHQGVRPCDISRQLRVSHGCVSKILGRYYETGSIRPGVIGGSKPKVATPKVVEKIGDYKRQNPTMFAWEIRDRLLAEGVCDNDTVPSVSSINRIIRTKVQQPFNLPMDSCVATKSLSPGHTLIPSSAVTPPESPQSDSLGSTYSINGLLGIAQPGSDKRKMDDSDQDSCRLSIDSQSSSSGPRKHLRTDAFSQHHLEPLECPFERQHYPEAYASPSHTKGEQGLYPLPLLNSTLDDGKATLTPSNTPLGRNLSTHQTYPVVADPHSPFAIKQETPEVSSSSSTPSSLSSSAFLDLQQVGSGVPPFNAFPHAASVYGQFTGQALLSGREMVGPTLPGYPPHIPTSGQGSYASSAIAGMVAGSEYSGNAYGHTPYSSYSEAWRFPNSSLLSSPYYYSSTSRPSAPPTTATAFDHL

Turning to `CC(NC(=O)C(=O)N1CCCCC1)C(c1cccs1)N1CCN(c2ccccc2)CC1` (stereo not given), in assay [1], the AC50 is 1.16 µM (active). Regarding `Cc1cccc(Nc2ncccc2C(=O)NCc2cccs2)c1C`, in assay [2], the half-maximal inhibitory concentration (IC50) is reported as 14.4 µM (not active). For the compound `O=C1CSC(c2cccc(F)c2)N1c1ccccc1` (stereo not given), the AC50 in assay [1] is 1.22 µM (active). As for `CCN(CC)C(=O)/C(=C/c1ccc2c(c1)OCO2)NC(=O)c1ccc(Br)cc1`, the EC50 in assay [3] is > 150 µM (inactive); in assay [4], 3.58 µM (active). Consider `CCc1ccc(-c2nc(CSCC(=O)N3CCN(c4ncccn4)CC3)c(C)o2)cc1`, for which the EC50 is 53.6 µM (active) in [5] and 29.8 µM (active) in [6]. Consider `O=C(Nc1ccnc(O)n1)c1sc2ccccc2c1Cl`, for which the concentration for half-maximal inhibition (IC50) in assay [7] was 16.2 µM (active).

For `CN(C)c1ccc(/C=C/c2cc[n+](C)cc2)cc1`, in assay [1], the half-maximal activity concentration (AC50) is 0.416 µM (active). For the same compound, the concentration giving a half-maximal response (EC50) in assay [8] is 0.723 µM (active); in [9] it was > 60 µM (not active). On to `CCN(CC)c1ccc(NC(=O)CSc2nc3nc(C)cc(C)c3c(=O)[nH]2)cc1`, for which the IC50 in assay [10] is 10.2 µM (active). Regarding `CCc1cc2c(=O)n(Cc3ccccc3)c(SC3CCOC3=O)nc2s1` (stereo not given), in [2], the 50% inhibitory concentration (IC50) is reported as 12.6 µM (not active). Regarding `Cc1ccc(-c2nc3ccc(Cl)cc3c(=O)n2O)cc1`, the EC50 is > 160 µM (inactive) in [3] and 1.58 µM (active) in assay [4].

With `CSCc1ccc(C(=O)NC(C)c2ccc(-n3ccnc3)cc2)cc1` (stereo not given), the AC50 in [1] was 1.33 µM (active). For `CNC(=O)COC(=O)CNC(=O)c1cc(Cl)cc([N+](=O)[O-])c1`, the IC50 in [2] was > 50 µM (not active). Same read-out and setting: to `COc1c(Cl)cc(C(=O)Nc2ccccc2-c2ccccc2)cc1Cl` belongs > 50 µM (not active). On to `COc1ccc(Cl)cc1NC(=O)CSc1ncnc2c1oc1ccccc12`, for which the values for the EC50 in [5] and in [6] were 4.25 µM (active) and 6.22 µM (active), respectively.

For the compound `CC1=C(C(=O)c2ccccc2)C(c2ccc(O)cc2)NC(S)=N1` (stereo not given), the IC50 in [10] was > 100 µM (active). On the same count and under the same terms, to `CCOc1c(Br)cc(CNc2ccc(N3CCN(C(C)=O)CC3)cc2)cc1OC` belongs 6.23 µM (active). On to `O=C(CC1C(=O)NCCN1Cc1ccc(F)cc1)NCCN1CCCc2ccccc21` (stereo not given), for which the half-maximal activity concentration (AC50) in assay [1] is 3.16 µM (active). On to `CC1CCc2cc(F)ccc2N1C(=O)CSc1n[nH]c2c3ccccc3nc-2n1` (stereo not given), for which the values for the EC50 in assay [5] and in [6] were 19 µM (active) and 22.5 µM (active), respectively. The matching figures for `Cc1nn(-c2ccccc2)c(N2CCCC2)c1/C=N/Nc1ccc(S(=O)(=O)Nc2ccccc2)cc1[N+](=O)[O-]`: 6.74 µM (active) and 9.37 µM (active).

Take `CCc1cc2c(Nc3ccc(O)cc3)nc(C)nc2s1`: the concentration for half-maximal inhibition (IC50) in assay [10] is 23.7 µM (active). As for `Clc1cccc(CSc2ccc(-c3ccco3)nn2)c1`, the CC50 in assay [11] was > 50 µM (active). Also, the IC50 in [12] was 99.9 µM (inactive). With `Cc1ccc(C(=O)N(Cc2ccccc2)C(C)(C)C)cc1C`, the IC50 in [2] was 16.6 µM (not active). Consider `CCOC(=O)c1c(NC(=O)C2CCCN(S(=O)(=O)c3ccccc3)C2)sc2c1CCCC2` (stereo not given), for which the half-maximal effective concentration (EC50) in assay [5] is 50.9 µM (active); in [6], 73.3 µM (active). For `CCCCNC(=O)COC(=O)c1c2c(nc3ccccc13)CCC2`, in assay [7], the IC50 was 9.63 µM (active). On to `Cc1cc(C2=NN=C(NC3CC3)SC2)c(C)n1-c1ccccc1`, for which the EC50 in assay [5] is 23.7 µM (active); in [6], 19.5 µM (active). Consider `CCCCN(CC)CCCN=C(S)Nc1ccc2nc3n(c(=O)c2c1)CCCCC3`, for which, in assay [2], the IC50 is < 0.4 µM (not active). Also, the half-maximal effective concentration (EC50) in assay [8] was 1.29 µM (active); in [9] it was > 60 µM (not active). For the compound `COc1ccc([N+](=O)[O-])cc1NC(=O)CSc1ccc2ccccc2c1`, in assay [2], the IC50 was 2.92 µM (not active).

With `O=C(C1CCC(=O)N(C2CC2)C1)N1CCN(c2ccc(Cl)cc2)CC1` (stereo not given), the AC50 in assay [1] was 15.8 µM (active). As to `c1cnc2c(OCc3nc4ccccc4[nH]3)cccc2c1`, the EC50 in [13] is 7.06 µM (active); in assay [14], 0.396 µM (active); in assay [15], 5.66 µM (active). In addition, in assay [2], the IC50 is 7.55 µM (not active). Turning to `O=C(N/N=C/c1c[nH]c2ccccc12)c1[nH]c2ccc(Br)cc2c1-c1ccccc1`, the AC50 in assay [16] is 3.5 µM (active). For the same compound, the concentration giving a half-maximal response (EC50) is > 150 µM (not active) in assay [17]; 0.412 µM (active) in assay [5]; 1.29 µM (active) in [18]; 0.378 µM (active) in assay [6]; 2.22 µM (active) in [19]. In the case of `Cc1c(C=O)c2ccccc2n1CC(=O)NC(C)c1ccccc1` (stereo not given), the 50% inhibitory concentration (IC50) in [2] is listed as > 50 µM (not active).

Consider `COc1ccc(Nc2ccc(Cl)cc2)c(C(=O)O)c1`, for which the concentration for half-maximal inhibition (IC50) in assay [10] was 18 µM (active). With `CCCCCCCCC(=O)NNC(=O)c1c(O)c2ccccc2n(CC)c1=O`, the EC50 in assay [3] is > 150 µM (inactive); in assay [4], 2.96 µM (active).
